Assay results published in US9169252B2 (BRISTOL-MYERS SQUIBB COMPANY, priority 2014, dated 2015).
pEC50, pIC50: −log10 of the molar value. Where two headings read alike, the source gives them in different places.

Tests used:
IRAK4 = IRAK4 (Homo sapiens (Human), UniProt Q9NWZ3); assay: IRAK4 Inhibition Assay; assay type: biochemical; settings: ATP 500 μM; IRAK4 0.6 nM; read-out: IRAK4 IC50
Summary of the method: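 IRAK4 combined with fluorescent substrate and compounds, reacted 60 min at room temperature, stopped with 35 mM EDTA. Substrate and phosphorylated product separated electrophoretically on a Caliper LabChip 3000 mobility-shift reader.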

[1] = system: TLR2 induced IL-6 in peripheral blood mononuclear cells (PBMCs); assay: PBMC TLR2 Induced IL-6 Assay; assay type: cell-based, human; settings: human PBMCs, lipoteichoic acid stimulated, IL-6 by ELISA; for pIC50: read-out: Cell IC50; for pEC50: read-out: Cell EC50
Summary of the method: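 Lipoteichoic acid at 10 µg/ml served as TLR2 stimulus for 5 hours, following a 30-minute compound pretreatment at 37° C. Cells were Ficoll-isolated human PBMCs, 250000 cells/well, cultured in RPMI plus 10% heat-inactivated FCS.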

Chain of IRAK4 (Q9NWZ3 whole entry, species assumed): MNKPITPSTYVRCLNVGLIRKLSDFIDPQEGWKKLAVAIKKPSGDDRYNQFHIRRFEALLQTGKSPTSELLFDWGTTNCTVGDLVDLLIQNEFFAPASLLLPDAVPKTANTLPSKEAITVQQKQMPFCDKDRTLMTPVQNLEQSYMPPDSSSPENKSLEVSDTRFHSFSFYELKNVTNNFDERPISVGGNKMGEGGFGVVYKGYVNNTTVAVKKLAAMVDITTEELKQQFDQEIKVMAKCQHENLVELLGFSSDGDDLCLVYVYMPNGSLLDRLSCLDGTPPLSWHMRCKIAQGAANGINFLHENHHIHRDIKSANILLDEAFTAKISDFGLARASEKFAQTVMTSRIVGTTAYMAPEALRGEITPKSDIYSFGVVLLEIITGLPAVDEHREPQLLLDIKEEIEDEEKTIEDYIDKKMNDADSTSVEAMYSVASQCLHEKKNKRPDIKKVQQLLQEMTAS

pIC50 (IRAK4)	Compound	pIC50 ([1]; Homo sapiens, PBMC)	pEC50 ([1]; Homo sapiens, PBMC)	pEC50 [1]
8.57	C[C@@H](F)CNc1cc(-n2ncc3cc(C#N)c(N)nc32)ncc1C(=O)NC[C@@H](F)C(C)(C)O [Example 591]	6.80		
7.71	COC(C)(C)CNc1cc(-n2ncc3cc(C#N)cnc32)ncc1C(=O)NC[C@@H](F)C(C)(C)O [Example 593]	6.39		
8.28	CC(C)(O)[C@H](F)CNC(=O)c1cnc(-n2ncc3cc(C#N)cnc32)cc1NCCCF [Example 595]	6.89		
7.81	CC(C)C(O)CNc1cc(-n2ncc3cc(C#N)cnc32)ncc1C(=O)NC[C@@H](F)C(C)(C)O (stereo partly shown) [Example 597]	6.51		
7.78	CC(C)(O)[C@H](F)CNC(=O)c1cnc(-n2ncc3cc(C#N)cnc32)cc1NCCOC(F)F [Example 598]	7.27		
8.32	CC(C)(F)CCNc1cc(-n2ncc3cc(C#N)c(N)nc32)ncc1C(=O)NC[C@@H](F)C(C)(C)O [Example 599]	6.56		
8.28	CC(C)(F)CCNc1cc(-n2ncc3cc(C#N)cnc32)ncc1C(=O)NC[C@@H](F)C(C)(C)O [Example 600]	6.32		
7.85	CC(C)(CNc1cc(-n2ncc3cc(C#N)cnc32)ncc1C(=O)NC[C@@H](F)C(C)(C)O)OC(F)F [Example 601]	6.31		
8.03	CC[C@@H](F)CNc1cc(-n2ncc3cc(Cl)cnc32)ncc1C(=O)NC[C@@H](F)C(C)(C)O [Example 602]	6.63		
8.17	CC(C)(CNc1cc(-n2ncc3cc(Cl)cnc32)ncc1C(=O)NC[C@@H](F)C(C)(C)O)OC(F)F [Example 603]	6.49		
8.12	CC(C)(O)[C@H](F)CNC(=O)c1cnc(-n2ncc3cc(C#N)cnc32)cc1NCC1CC1 [Example 605]	6.78		
8.40	CC(C)(O)[C@H](F)CNC(=O)c1cnc(-n2ncc3cc(C#N)cnc32)cc1N[C@H]1CC[C@H](C(C)(C)O)CC1 [Example 606, 6-(5-Cyano-1H-pyrazolo[3,4-b]pyridin-1-yl)-N—((R)-2-fluoro-3-hydroxy-3-methylbutyl)-4-(((1r,4R)-4-(2-hydroxypropan-2-yl)cyclohexyl)amino)nicotinamide]		6.90	
8.40	CC(C)(O)[C@H](F)CNC(=O)c1cnc(-n2ncc3cc(C#N)cnc32)cc1N[C@H]1CC[C@@](C)(O)CC1 [Example 607]		6.48	
7.90	CC(C)(O)[C@H](F)CNC(=O)c1cnc(-n2ncc3cc(C#N)cnc32)cc1N[C@H]1CC[C@](C)(O)CC1 [Example 608]		6.50	
8.25	CC(C)(O)[C@H]1CCC[C@@H](Nc2cc(-n3ncc4cc(C#N)cnc43)ncc2C(=O)NC[C@@H](F)C(C)(C)O)C1 [Example 612]	6.58	6.79	
8.55	CC(C)(O)[C@H](F)CNC(=O)c1cnc(-n2ncc3cc(C#N)cnc32)cc1NC12CCC(O)(CC1)C2 [Example 613]	6.89	6.80	
7.96	CC(C)(O)[C@H](F)CNC(=O)c1cnc(N2CCc3cc(C#N)cnc32)cc1NC1CC1 [Example 616]	6.37	6.52	
8.55	CC(C)(O)[C@H]1CC[C@H](Nc2cc(-n3ncc4cc(C#N)cnc43)ncc2C(=O)NC[C@@H](F)C(C)(C)O)C1 [Example 617]	6.31		

pIC50 (IRAK4)	Compound	pIC50 ([1]; Homo sapiens, PBMC)	pEC50 ([1]; Homo sapiens, PBMC)	pEC50 [1]
8.47	CC(C)(O)[C@H](F)CNC(=O)c1cnc(-n2ncc3cc(F)cnc32)cc1NC1CCC(F)C1 (stereo partly shown) [Example 620]			6.94
8.40	CC(C)(O)[C@H](F)CNC(=O)c1cnc(-n2ncc3cc(F)cnc32)cc1NC1CCC(F)C1 (stereo partly shown) [Example 621]			6.86
8.28	CC(C)(O)[C@H](F)CNC(=O)c1cnc(-n2ncc3cc(C#N)cnc32)cc1N[C@H]1CC[C@H](NC2COC2)CC1 [Example 622]	6.88		
8.28	CC(C)(O)[C@H](F)CNC(=O)c1cnc(-n2ncc3cc(C#N)cnc32)cc1N[C@H]1CC[C@H](NC(=O)C2CC2)CC1 [Example 623]	6.32		
8.68	CC(C)(O)[C@H](F)CNC(=O)c1cnc(-n2ncc3cc(C#N)cnc32)cc1NC12CC3CC(CC(O)(C3)C1)C2 [Example 624]	7.17		
8.48	CC(C)(O)[C@H]1CC[C@H](Nc2cc(-n3ncc4cc(Cl)cnc43)ncc2C(=O)NC[C@@H](F)C(C)(C)O)C1 [Example 628]	6.83		
8.48	CNC(=O)[C@H]1CC[C@H](NC(=O)c2cnc(-n3ncc4cc(C#N)c(N)nc43)cc2N[C@@H]2CCCC[C@H]2F)CC1 [Example 629]	6.87		
8.66	CNC(=O)[C@H]1CC[C@H](NC(=O)c2cnc(-n3ncc4cc(C#N)c(N)nc43)cc2N[C@H]2CCCC[C@@H]2F)CC1 [Example 630]	7.52		
8.47	CC(C)(O)[C@H](F)CNC(=O)c1cnc(-n2ncc3cc(C#N)c(N)nc32)cc1NC1CC1 [Example 631]	7.18		
8.59	CC(C)(O)[C@H](F)CNC(=O)c1cnc(-n2ncc3cc(C#N)c(N)nc32)cc1NC12CC3CC(CC(O)(C3)C1)C2 [Example 632]	6.83		
8.48	CC(C)(O)[C@H](F)CNC(=O)c1cnc(-n2ncc3cc(C#N)cnc32)cc1N[C@H]1CC[C@H](NC(=O)C(F)F)CC1 [Example 633]	6.59		
8.41	CC(C)(O)[C@H](F)CNC(=O)c1cnc(-n2ncc3cc(C#N)cnc32)cc1N[C@H]1CC[C@H](NC(=O)c2ccccc2F)CC1 [Example 634]	6.56		
8.74	CC(C)(O)[C@H](F)CNC(=O)c1cnc(-n2ncc3cc(C#N)cnc32)cc1NC12CC(C1)C2 [Example 635]	6.43		
8.52	CC(C)(F)[C@H](F)CNC(=O)c1cnc(-n2ncc3cc(C#N)cnc32)cc1NC12CC3CC(CC(O)(C3)C1)C2 [Example 636]	6.53		
8.82	CC(C)(O)[C@H](F)CNC(=O)c1cnc(-n2ncc3cc(C#N)c(N)nc32)cc1NC12CC(C1)C2 [Example 637]	6.78		
8.19	CC(C)NC(=O)[C@H]1CC[C@H](Nc2cc(-n3ncc4cc(C#N)cnc43)ncc2C(=O)NC[C@@H](F)C(C)(C)O)CC1 [Example 641]	6.14		
8.37	CC(C)(O)[C@H](F)CNC(=O)c1cnc(-n2ncc3cc(C#N)cnc32)cc1NC1CC(F)(F)C1 [Example 644]	7.05		
